In US20210163937A1, “[…] GENOME-EDITED CELLS” (B.R.A.I.N. Biotechnology Research and Information Network AG, priority 2018, published 2021):

Key:
Format in all cases: cell-based, human
[1] = tested on: HaCaT wildtype keratinocytes; experiment: Blasticidin tolerance, growth determined microscopically; details: 4 μg/ml blasticidin, HaCaT-WT cells
Procedure: (§1) In order to determine the tolerance against the antibiotic blasticidin, HaCaT wildtype keratinocytes (VVT; Boukamp, et al.1988, The Journal of Cell Biology, 106(3):761-771.) as well as HaCaT-LRRC8A^−/− knock-out (KO) cells were treated with different concentrations of blasticidin and growth was determined microscopically for several days (FIG. 2). […] As previously shown for KBM-7cells^10, the LRRC8D subunit is also required for blasticidin uptake in HaCaT cells (FIG. 2A).

[2] = tested on: HaCaT-LRRC8A−/− knock-out (KO) cells; experiment: as above
Procedure: as §1

[3] = tested on: HaCaT knock-out cells devoid of LRRC8D; experiment: Blasticidin tolerance of LRRC8D knock-out cells; details: LRRC8D gene knock-out
Text: FIG. 2: (A) Microscopic analysis of cytotoxic effect of blasticidin on HaCaT wildtype keratinocytes (VVT) (upper panel), HaCaT knock-out cells devoid of LRRC8A (LRRC8A^−/− KO) and HaCaT knock-out cells devoid of LRRC8D (LRRC8D^−/− KO). (B) Graphical display of survival rate of HaCaT wildtype vs. LRRC8A knock-out cells in presence of blasticidin.
as §1

[4] = tested on: non-pure LRRC8A−/− HaCaT cell clone; experiment: Removal of wildtype cells from a mixed LRRC8A−/− cell pool, PCR of genomic DNA; details: single pulse 4 μg/ml blasticidin for 24 h, then blasticidin-free medium
Text: Creating single cell clones is one of the most challenging tasks in all fields of genome engineering. […] Therefore it was of interest to analyze whether the LRRC8A-mediated blasticidin resistance could be a very easy method to get rid of non-edited wildtype cells. To mimic this issue, a non-pure LRRC8A^−/− HaCaT cell clone, which contained the desired 300 bp LRRC8A genomic deletion as well as few undesired HaCaT wildtype cells, was chosen and either treated or not treated with a single blasticidin pulse (4 μg/ml blasticidin applied for 24 h) (FIG. 3A). Then cultivation medium was changed and cells were cultivated in absence of blasticidin. Genomic DNA was isolated and PCR was performed to visualize the genomic deletion of LRRC8A in knock-out cells and/or the non-deleted, intact LRRC8A gene of wildtype cells (FIG. 3B). […] Strikingly, treatment with blasticidin prevented this effect: No
This also proves that disruption of the LRRC8A-mediated blasticidin resistance can not only be used to create blasticidin-resistant cells but that it is also suited to get rid of unwanted wildtype cells during genome engineering.

[5] = tested on: HaCaT cells; experiment: Co-editing of LRRC8D and EMX1 with blasticidin enrichment, Sanger sequencing and ICE analysis; details: transfected HaCaT cells treated with blasticidin
Procedure: The functionality of the above-described co-editing system was tested by using EMX1 (Empty Spiracles Homeobox 1) as gene-of-interest and LRRC8D as blasticidin resistance-mediating gene. EMX1 is a commonly used reference gene in CRISPR-based research^23. Instead of LRRC8A, another member of the LRRC8 gene family, LRRC8D, was used. First, the coding sequences of two sgRNAs targeting the LRRC8D and EMX1 gene were cloned into an expression plasmid containing the coding sequence for the Cas9 nuclease (FIGS. 4 and 5A). Then HaCaT cells were transfected with the expression plasmids and cells were either treated or not treated with blasticidin (FIG. 5A). After several days of cultivation, genomic DNA was extracted and used in PCR to amplify the genomic-region of the LRRC8D and EMX gene. The PCR products were analyzed by Sanger sequencing and subsequent ICE (Inference of CRISPR Edits)^24 analysis to determine the genetic modifications occurring in the treated and non-treated HaCaT cells (FIG. 5B). Strikingly, when the transfected HaCaT cell pool was not treated with blasticidin, no editing event could be detected; neither in the EMX1 nor in the LRRC8D gene.

[6] = tested on: HaCaT cells; experiment: Co-editing of LRRC8A and EMX1 with blasticidin enrichment, ICE analysis; details: for EMX1 editing: after blasticidin
Procedure: (§2) To further increase the editing rate of the gene of interest, the two single sgRNA cassettes of the gene of interest and the LRRC8A or LRRC8D selection gene (FIG. 6A) can be transcriptionally coupled, for example by coupling the sgRNAs via ribozyme structures (FIG. 6B) or by other processing sites such as tRNAs (FIG. 6C). […] Then HaCaT cells were transfected with the corresponding expression plasmids and cells were treated and analyzed as described in Example 4.
The initial editing rates for EMX1 and LRRC8A were determined 48 h post-transfection and were very low (<5%) (FIG. 7A). Treatment with blasticidin led to drastic increase of LRRC8A editing (>95%), which was equally high independent of the sgRNA expression construct showing efficient enrichment of LRRC8A-KO cells using blasticidin (FIG. 7A). When sgRNA expression cassette of EMX1 was independent from that of LRRC8A, EMX1 editing was increased from 3 to 7%. Strikingly, by coupling the two sgRNA cassettes of EMX1 and LRRC8A via ribozymes, EMX1 editing could drastically be increased from 7% to >70% (FIG. 7A). This clearly proves that the above-described strategy to increase low editing events by transcriptional coupling is functioning.

[7] = tested on: HEK293 cells; experiment: as above; details: HEK293, after blasticidin
Procedure: as §2
To confirm the suitability of the co-editing strategy of the present invention also for a different cell type, the same experimental setup was applied for HEK293 cells (FIG. 7B). Again, initial editing of the gene of interest EMX1 was also very low in HEK293 cells. By applying the co-editing strategy as presented above for HaCaT cells, it was also possible to increase the editing rates to approx. 60% for EMX1 and approx. 90% for LRRC8A in HEK293 cells (using uncoupled sgRNA expression constructs) (FIG. 7B).
Again, by transcriptional coupling it was possible to further increase editing rates for EMX1 from 62% to 74% (FIG. 7B).

[8] = tested on: HEK293 cells; experiment: HR-dependent LRRC8A gene disruption, cell growth under blasticidin; details: HEK293, Cas9 + intronic LRRC8A sgRNA, treated 72 h after transfection
Procedure: Next, it was tested whether the above-described strategy (Example 6, FIG. 8) can indeed be employed to enrich HR-capable cells (or conversely to get rid of cells which have performed NHEJ). First, a HDR donor template was designed (FIG. 9A), which creates a modified, non-functional LRRC8A sequence after successful insertion via HR. The HDR donor template is composed of left and right HR flaks, which are complementary to intronic and exon-3 LRRC8A sequence, respectively. The exon-3 sequence used in the HDR donor template carries two modifications to create non-functional LRRC8A: (i) Mutation of the translational start site ATG to ATT and (ii) deletion of one nucleotide (Guanin) to create LRRC8A frameshift. To also test whether foreign or recombinant DNA sequences can be inserted into the LRRC8A locus as well, the restriction site for the Kpnl restriction enzyme was included into the HDR donor template. To prevent the repeated cutting of the Cas9 enzyme (which would prevent successful HDR donor template insertion), the spacer sequence of the sgRNA (which is used to induce the DSB at the intronic region of LRRC8A) was modified by mutating the PAM motif and the seed region. […]

## CN(CC[C@H](N)CC(=O)N[C@H]1C=C[C@H](n2ccc(N)nc2=O)O[C@@H]1C(=O)O)C(=N)N [blasticidin]
[1]
  growth of cells in presence of blasticidin: not able to grow anymore and died
[2]
  survival of cells under blasticidin treatment: survived the treatment
[3]
  blasticidin resistance of LRRC8D knock-out cells: resistant
[4]
  PCR products of wildtype and knock-out cells after blasticidin treatment: only the PCR product of the pure knock-out cell clone was detectable
[5]
  editing percentage of the LRRC8D gene: 90%
  editing percentage of the co-edited EMX1 gene: 6%
[6]; after blasticidin treatment, independent of sgRNA expression construct
  LRRC8A editing: > 95%
[6]; EMX1 sgRNA cassette independent from LRRC8A
  EMX1 editing: 7%
[6]; sgRNA cassettes coupled via ribozymes HDV/HH
  EMX1 editing: > 70%
[7]; transcriptional coupling
  editing rate for EMX1: 74%
[7]; uncoupled sgRNA expression constructs
  editing rate for LRRC8A: approx. 90%
[8]; HDR donor template included
  cell growth under blasticidin treatment: cell growth was observed
[8]; HDR template omitted
  cell growth under blasticidin treatment: no cell growth was observed
